Experimental data from the NIST ThermoML archive (doi:10.1016/j.tca.2004.12.015).
Where “and” joins values, the source holds several entries; their conditions need not be identical. Identical values can stand only once.

Experiment: molar heat capacity at constant pressure
Details: 101.33 kPa, Vacuum adiabatic calorimetry

N#CCCNc1ccccc1 [3-anilinopropanenitrile]
Details	molar heat capacity at constant pressure
262.12 K, Crystal 2	156 J/K/mol
263 K, Crystal 2	160 J/K/mol
263.62 K, Crystal 2	158 J/K/mol
265.1 K, Crystal 2	158 J/K/mol
266.58 K, Crystal 2	160 J/K/mol
268 K, Crystal 2	161 J/K/mol
268.05 K, Crystal 2	160 J/K/mol
269.52 K, Crystal 2	161 J/K/mol
270.98 K, Crystal 2	161 J/K/mol
272.44 K, Crystal 2	161 J/K/mol
273 K, Crystal 2	162 J/K/mol
273.9 K, Crystal 2	162 J/K/mol
275.36 K, Crystal 2	163 J/K/mol
276.81 K, Crystal 2	163 J/K/mol
278 K, Crystal 2	162 J/K/mol
278.26 K, Crystal 2	164 J/K/mol
279.7 K, Crystal 2	164 J/K/mol
281.13 K, Crystal 2	165 J/K/mol
282.56 K, Crystal 2	165 J/K/mol
283 K, Crystal 2	162 J/K/mol
283.98 K, Crystal 2	165 J/K/mol
285.41 K, Crystal 2	165 J/K/mol
286.82 K, Crystal 2	165 J/K/mol
288 K, Crystal 2	164 J/K/mol
288.23 K, Crystal 2	165 J/K/mol
289.63 K, Crystal 2	166 J/K/mol
291.02 K, Crystal 2	166 J/K/mol
292.39 K, Crystal 2	167 J/K/mol
293 K, Crystal 2	168 J/K/mol
293.74 K, Crystal 2	169 J/K/mol
295.08 K, Crystal 2	170 J/K/mol
296.42 K, Crystal 2	171 J/K/mol
297.76 K, Crystal 2	174 J/K/mol
298.15 K, Crystal 2	179 J/K/mol
299.09 K, Crystal 2	177 J/K/mol
300.41 K, Crystal 2	180 J/K/mol
301.72 K, Crystal 2	185 J/K/mol
303 K, Crystal 2	192 J/K/mol and 196 J/K/mol
304.27 K, Crystal 2	201 J/K/mol
305 K, Crystal 2	206 J/K/mol
305.5 K, Crystal 2	213 J/K/mol
306.69 K, Crystal 2	231 J/K/mol
307.82 K, Crystal 2	260 J/K/mol
308.85 K, Crystal 2	301 J/K/mol
309.78 K, Crystal 2	355 J/K/mol
310.63 K, Crystal 2	390 J/K/mol
311.5 K, Crystal 1	329 J/K/mol
312.51 K, Crystal 1	280 J/K/mol
313.55 K, Crystal 1	303 J/K/mol
314.54 K, Crystal 1	330 J/K/mol
315.48 K, Crystal 1	365 J/K/mol
316.35 K, Crystal 1	410 J/K/mol
317.16 K, Crystal 1	466 J/K/mol
317.89 K, Crystal 1	538 J/K/mol
318.55 K, Crystal 1	629 J/K/mol
319.14 K, Crystal 1	738 J/K/mol
319.66 K, Crystal 1	865 J/K/mol
320.12 K, Crystal 1	1014 J/K/mol
320.52 K, Crystal 1	1189 J/K/mol
320.86 K, Crystal 1	1380 J/K/mol
321.16 K, Crystal 1	1596 J/K/mol
321.42 K, Crystal 1	1846 J/K/mol
321.65 K, Crystal 1	2037 J/K/mol
321.85 K, Crystal 1	2361 J/K/mol
322.03 K, Crystal 1	2644 J/K/mol
322.19 K, Crystal 1	2885 J/K/mol
322.33 K, Crystal 1	3118 J/K/mol
322.45 K, Crystal 1	3359 J/K/mol
322.56 K, Crystal 1	3742 J/K/mol
322.66 K, Crystal 1	4116 J/K/mol
322.75 K, Crystal 1	4448 J/K/mol
322.83 K, Crystal 1	4648 J/K/mol
322.9 K, Crystal 1	5022 J/K/mol
322.97 K, Crystal 1	5280 J/K/mol
323.03 K, Crystal 1	5513 J/K/mol
323.09 K, Crystal 1	5621 J/K/mol
323.15 K, Crystal 1	6011 J/K/mol
323.2 K, Crystal 1	6386 J/K/mol
323.24 K, Crystal 1	6585 J/K/mol
323.29 K, Crystal 1	6627 J/K/mol
323.33 K, Crystal 1	6677 J/K/mol
323.37 K, Liquid	6568 J/K/mol
323.42 K, Liquid	6236 J/K/mol
323.46 K, Liquid	5862 J/K/mol
323.5 K, Liquid	5604 J/K/mol
323.55 K, Liquid	5446 J/K/mol
323.59 K, Liquid	5080 J/K/mol
323.64 K, Liquid	4673 J/K/mol
323.69 K, Liquid	4199 J/K/mol
323.73 K, Liquid	3816 J/K/mol
323.78 K, Liquid	3517 J/K/mol
323.83 K, Liquid	2536 J/K/mol
324 K, Liquid	1014 J/K/mol
324.78 K, Liquid	242 J/K/mol
325 K, Liquid	244 J/K/mol
325.93 K, Liquid	245 J/K/mol
327.07 K, Liquid	245 J/K/mol
328.2 K, Liquid	246 J/K/mol
329.34 K, Liquid	246 J/K/mol
330 K, Liquid	247 J/K/mol
330.46 K, Liquid	247 J/K/mol
331.59 K, Liquid	247 J/K/mol
332.72 K, Liquid	247 J/K/mol
333.84 K, Liquid	247 J/K/mol
334.96 K, Liquid	248 J/K/mol
335 K, Liquid	249 J/K/mol
336.08 K, Liquid	250 J/K/mol
337.19 K, Liquid	251 J/K/mol
338.3 K, Liquid	253 J/K/mol
339.4 K, Liquid	254 J/K/mol
340 K, Liquid	254 J/K/mol
340.5 K, Liquid	255 J/K/mol
342.69 K, Liquid	259 J/K/mol
343.77 K, Liquid	262 J/K/mol
344.84 K, Liquid	265 J/K/mol
345 K, Liquid	266 J/K/mol
345.9 K, Liquid	269 J/K/mol
346.95 K, Liquid	273 J/K/mol
348.01 K, Liquid	278 J/K/mol
349.04 K, Liquid	284 J/K/mol
350 K, Liquid	288 J/K/mol
351.08 K, Liquid	294 J/K/mol
352.08 K, Liquid	300 J/K/mol
353 K, Liquid	308 J/K/mol
353.07 K, Liquid	309 J/K/mol
